Key:
[1] = system: cardiac muscle tissue of the left auricle; assay: Acute experiment (open-heart surgery) using swine: verification of immediate conduction block by photodynamic therapy; format: in vivo; details: 10 mg/kg intravenously, irradiation 30 minutes after administration, 663 nm, 5.2 W/cm^2, 208 J/cm^2, irradiation line approximately 30 mm
Method: Left auricular tissue obtained from a swine (body weight: 15.4 kg) was used as a sample. Talaporfin sodium was used as a photosensitive dye, and it was administered intravenously to the swine at 10 mg/kg of the body weight. The duration until light irradiation after the administration of the photosensitive dye was 30 minutes. Light irradiation was carried out using a semiconductor laser with a central wavelength of 663 nm at a power density of 5.2 W/cm^2, an energy density of 208 J/cm^2, and a spot size of 7 mm Φ. The experiment for verification of immediate conduction block using swine was carried out in accordance with the following procedure. 1. A swine was subjected to open-heart surgery under deep anesthesia and the left auricle was exposed. 2. Three bipolar electrodes were positioned in cardiac muscle tissue of the left auricle. One such electrode was used for electrical stimulation (for conductance) and the two other electrodes were used for potential measurement (A and B). 3. Talaporfin sodium was administered intravenously at 10 mg/kg. 4. The irradiation with a band-like laser beam was carried out in a dotted manner between electrodes for potential measurement 30 minutes after administration to perform photodynamic therapy. 5. The potential of an electrode for potential measurement B was measured during laser beam irradiation. 6. […]

[2] = system: right ventricular tissue isolated from a Wistar rat; assay: Electrical conduction blocking via photodynamic therapy in cardiac muscle tissue extirpated from a rat (ex vivo); details: 4.3 μg/ml in Tyrode's perfusion fluid for 2 hours; 670.8 nm laser, 150 mW/cm^2, 3.5 J/cm^2; 5 minutes after photodynamic therapy
Method: The right ventricular tissue isolated from a Wistar rat was used as a sample. Talaporfin sodium was used as a photosensitive pigment. Talaporfin sodium was dissolved in a perfusion fluid at 4.3 μg/ml. Tyrode's solutions were used as perfusion fluids ([…] 37° C.). A semiconductor laser with a central wavelength of 670.8 nm was used as an excitation light source, and the irradiation was carried out at 150 mW/cm^2 and 3.5 J/cm^2. An experiment of electric conduction blocking in the cardiac muscle was carried out by the following procedures. 1. The heart was extirpated under deep anesthesia and the right ventricular wall was excised. 2. The excised tissue was subjected to perfusion in a Tyrode's solution comprising talaporfin sodium dissolved therein for 2 hours. 3. Three bipolar electrodes were positioned in cardiac muscle tissue. One such electrode was used for electrical stimulation (for conductance) and the two other electrodes were used for potential measurement (A and B). 4. A band-like laser beam was irradiated to the region between electrodes for potential measurement to perform photodynamic therapy. 5. Potentials at the electrodes for potential measurement A and B were measured during laser irradiation.

Q: Which “delay of electric conduction at electrode B after light irradiation” value [1] does the source give for C=Cc1c(C)c2cc3nc(c(CC(=O)N[C@@H](CC(=O)O)C(=O)O)c4[nH]c(cc5nc(cc1[nH]2)C(C)=C5CC)c(C)c4C(=O)O)[C@@H](CCC(=O)O)[C@@H]3C [Talaporfin sodium, talaporfin sodium] here?
A: The value was “approximately 35.5 ms”.

Q: And the “electric conductivity of cardiac muscle tissue at the site irradiated with light after photodynamic therapy” value [2]?
A: The value was “electric conductivity of cardiac muscle tissue was lost”.

— patent US20140330261A1, “CATHETER FOR PERFORMING PHOTODYNAMIC ABLATION OF CARDIAC MUSCLE TISSUE VIA PHOTOCHEMICAL REACTION” (KEIO UNIVERSITY, priority 2010, published 2014)
